# Patent US20220226337A1 (Gilead Sciences, Inc., priority 2018, published 2022)
# Biological target: T1, α4β7 integrin interaction with MadCAM-1 (RPMI8866 cells) (Homo sapiens, UniProt P13612+P26010)
# T1 construct: α4β7 integrin expressing cells; endogenous in cells; host or cells: RPMI8866 cells
# T1 sequence (P13612 34-1032): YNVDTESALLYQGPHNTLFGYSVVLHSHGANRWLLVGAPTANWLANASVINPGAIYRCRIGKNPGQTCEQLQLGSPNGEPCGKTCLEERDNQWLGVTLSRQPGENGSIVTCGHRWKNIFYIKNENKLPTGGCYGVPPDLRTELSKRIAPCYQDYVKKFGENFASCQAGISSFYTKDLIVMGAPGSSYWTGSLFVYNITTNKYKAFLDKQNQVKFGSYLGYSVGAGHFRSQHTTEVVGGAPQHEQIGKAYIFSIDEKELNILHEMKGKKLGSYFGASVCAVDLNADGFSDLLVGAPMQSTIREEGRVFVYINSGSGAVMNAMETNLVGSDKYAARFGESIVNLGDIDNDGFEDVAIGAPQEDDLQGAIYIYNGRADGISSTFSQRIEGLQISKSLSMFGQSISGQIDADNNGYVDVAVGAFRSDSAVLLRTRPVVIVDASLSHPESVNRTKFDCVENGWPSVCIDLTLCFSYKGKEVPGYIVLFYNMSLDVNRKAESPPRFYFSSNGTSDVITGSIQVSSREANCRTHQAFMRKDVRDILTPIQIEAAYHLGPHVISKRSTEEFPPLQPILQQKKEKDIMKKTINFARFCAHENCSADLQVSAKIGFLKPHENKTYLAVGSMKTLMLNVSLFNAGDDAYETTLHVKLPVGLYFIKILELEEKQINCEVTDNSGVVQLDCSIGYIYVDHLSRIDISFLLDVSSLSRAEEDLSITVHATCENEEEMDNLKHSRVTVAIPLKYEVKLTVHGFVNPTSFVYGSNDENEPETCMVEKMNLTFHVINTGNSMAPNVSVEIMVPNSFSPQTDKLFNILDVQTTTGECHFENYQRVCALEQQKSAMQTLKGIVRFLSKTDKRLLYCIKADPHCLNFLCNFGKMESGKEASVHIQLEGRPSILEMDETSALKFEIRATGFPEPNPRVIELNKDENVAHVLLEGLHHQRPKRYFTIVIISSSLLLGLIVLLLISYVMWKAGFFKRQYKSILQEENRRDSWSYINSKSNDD
# T1 sequence (P26010 20-798): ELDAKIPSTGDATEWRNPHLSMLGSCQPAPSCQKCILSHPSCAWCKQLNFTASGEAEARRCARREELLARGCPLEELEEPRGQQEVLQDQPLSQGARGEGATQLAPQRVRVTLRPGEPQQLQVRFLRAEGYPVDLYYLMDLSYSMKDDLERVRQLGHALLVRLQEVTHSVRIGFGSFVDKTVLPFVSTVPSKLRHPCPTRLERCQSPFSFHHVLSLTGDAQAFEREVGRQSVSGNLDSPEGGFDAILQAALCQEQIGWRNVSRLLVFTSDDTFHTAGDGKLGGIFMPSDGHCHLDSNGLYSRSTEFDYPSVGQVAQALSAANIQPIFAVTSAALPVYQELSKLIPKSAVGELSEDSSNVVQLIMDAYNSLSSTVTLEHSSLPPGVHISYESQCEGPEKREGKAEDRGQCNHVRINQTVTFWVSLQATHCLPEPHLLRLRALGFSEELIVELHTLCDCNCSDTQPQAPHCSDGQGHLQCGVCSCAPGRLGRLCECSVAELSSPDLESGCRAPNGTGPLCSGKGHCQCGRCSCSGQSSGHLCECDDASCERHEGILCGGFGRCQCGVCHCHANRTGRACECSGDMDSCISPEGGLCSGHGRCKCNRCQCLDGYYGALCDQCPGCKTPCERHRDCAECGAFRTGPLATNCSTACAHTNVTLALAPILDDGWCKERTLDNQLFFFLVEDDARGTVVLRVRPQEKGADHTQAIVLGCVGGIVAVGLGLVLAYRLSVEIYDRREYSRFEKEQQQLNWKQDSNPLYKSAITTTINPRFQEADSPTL
# Assay: α4β7 Integrin Cell Capture Assay
# Assay type: cell-based
# Settings: capture of α4β7 integrin expressing RPMI8866 cells on recombinant MadCAM-1 extracellular domain-coated plate; 0.5 mM MnCl2
# Description: The potency of inhibitors in preventing α4β7 integrin interaction with MadCAM-1 was measured by monitoring the capture of α4β7 integrin expressing cells on a recombinant MadCAM-1 extracellular domain-coated plate. 384-well plates (Corning 3702) were coated with MadCAM-1 extracellular domain by dispensing 20 μL of MAdCAM-1 at 1.0 μg/mL per well and incubating overnight at 4° C. The plates were then washed with PBS and blocked with 3% BSA for 2 hours before being washed again. RPMI8866 cells were spun down and re-suspended in assay medium (DMEM+0.5% FBS+0.5 mM MnCl2) at a density of 0.5×10^6 cells/mL. The cells were then dispensed (60 μL/well) to a 384-well plate (Greiner 781280) that was previously spotted with 60 nL of test compound per well. The plates were incubated at 37° C. for 1 hour. 50 μL of cells were transferred to the blocked, MadCAM-1-coated plates and incubated for 30 minutes at 37° C. 10 μL of 12% glutaraldehyde containing Hoechst 33342 (0.06 mg/mL) was added to the cells (2% glutaraldehyde and 0.01 mg/mL final concentrations). The plates were incubated for 90 minutes at room temperature. The plates were then washed 3 times with 70 μL of PBS per well and imaged on a Cellomics ArrayScan instrument. The cells that were bound to the plate were counted and plotted against the compound concentration to determine the EC50 of the test compounds.
row,SMILES,EC50 [nM]
1,"CC[C@@H](Nc1cc(F)c(C(=O)N[C@@H](Cc2ccc(-c3ncc(C)c(C)n3)c3c2COC3)C(=O)O)c(F)c1)C(F)(F)F [Example 24, (S)-2-(2,6-difluoro-4-(((R)-1,1,1-trifluorobutan-2-yl)amino)benzamido)-3-(7-(4,5-dimethylpyrimidin-2-yl)-1,3-dihydroisobenzofuran-4-yl)propanoic acid]",100
2,"Cn1c(=O)c(-c2ccc(C[C@H](NC(=O)c3c(F)cc(N4CCOC[C@@H]4C(F)(F)F)cc3F)C(=O)O)c3c2COC3)cc2ccccc21 [Example 26, (S)-2-(2,6-difluoro-4-((R)-3-(trifluoromethyl)morpholino)benzamido)-3-(7-(1-methyl-2-oxo-1,2-dihydroquinolin-3-yl)-1,3-dihydroisobenzofuran-4-yl)propanoic acid]",1.04
3,"Cc1cc(C)n(C)c(=O)c1-c1ccc(C[C@H](NC(=O)c2c(F)cc(N3CCOC[C@@H]3C(F)(F)F)cc2F)C(=O)O)c2c1COC2 [Example 27, (S)-2-(2,6-difluoro-4-((R)-3-(trifluoromethyl)morpholino)benzamido)-3-(7-(1,4,6-trimethyl-2-oxo-1,2-dihydropyridin-3-yl)-1,3-dihydroisobenzofuran-4-yl)propanoic acid]",0.822
4,"Cc1cnc(-c2ccc(C[C@H](NC(=O)c3c(F)cc(N4CCOC[C@@H]4C(F)(F)F)cc3F)C(=O)O)c3c2COC3)nc1C [Example 28, (S)-2-(2,6-difluoro-4-((R)-3-(trifluoromethyl)morpholino)benzamido)-3-(7-(4,5-dimethylpyrimidin-2-yl)-1,3-dihydroisobenzofuran-4-yl)propanoic acid]",94.9
5,"Cc1c(C(F)(F)F)cn(C)c(=O)c1-c1ccc(C[C@H](NC(=O)c2c(F)cc(N3CCOC[C@@H]3C(F)(F)F)cc2F)C(=O)O)c2c1COC2 [Example 29, (S)-2-(2,6-difluoro-4-((R)-3-(trifluoromethyl)morpholino)benzamido)-3-(7-(1,4-dimethyl-2-oxo-5-(trifluoromethyl)-1,2-dihydropyridin-3-yl)-1,3-dihydroisobenzofuran-4-yl)propanoic acid]",0.817
6,"Cc1cc(C)n(C)c(=O)c1-c1ccc(C[C@H](NC(=O)c2c(F)cc(N[C@H](C)C(F)(F)F)cc2F)C(=O)O)c2c1COC2 [Example 30, (S)-2-(2,6-difluoro-4-(((R)-1,1,1-trifluoropropan-2-yl)amino)benzamido)-3-(7-(1,4,6-trimethyl-2-oxo-1,2-dihydropyridin-3-yl)-1,3-dihydroisobenzofuran-4-yl)propanoic acid]",1.74
7,"Cn1c(=O)c(-c2ccc(C[C@H](NC(=O)c3c(F)cc(N4CCOC[C@@H]4C(F)(F)F)cc3F)C(=O)O)c3c2OCCC3)cc2ccccc21 [Example 32, (S)-2-(2,6-difluoro-4-((R)-3-(trifluoromethyl)morpholino)benzamido)-3-(8-(1-methyl-2-oxo-1,2-dihydroquinolin-3-yl)chroman-5-yl)propanoic acid]",1.78
8,"Cn1c(=O)c(-c2ccc(C[C@H](NC(=O)c3c(Cl)cccc3Cl)C(=O)O)c3c2OC(C)(C)C3)cc2ccccc21 [Example 38, (S)-2-(2,6-dichlorobenzamido)-3-(2,2-dimethyl-7-(1-methyl-2-oxo-1,2-dihydroquinolin-3-yl)-2,3-dihydrobenzofuran-4-yl)propanoic acid]",20.6

# More lines, now with the values ahead:
row,EC50 [nM],SMILES
1,6,"CC[C@@H](Nc1cc(F)c(C(=O)N[C@@H](Cc2ccc(-c3cc4ccccc4n(C)c3=O)c3c2COC3)C(=O)O)c(F)c1)C(F)(F)F [Example 21, (S)-2-(2,6-difluoro-4-(((R)-1,1,1-trifluorobutan-2-yl)amino)benzamido)-3-(7-(1-methyl-2-oxo-1,2-dihydroquinolin-3-yl)-1,3-dihydroisobenzofuran-4-yl)propanoic acid]"
2,1.35,"CC[C@@H](Nc1cc(F)c(C(=O)N[C@@H](Cc2ccc(-c3c(C)cc(C)n(C)c3=O)c3c2COC3)C(=O)O)c(F)c1)C(F)(F)F [Example 22, (S)-2-(2,6-difluoro-4-(((R)-1,1,1-trifluorobutan-2-yl)amino)benzamido)-3-(7-(1,4,6-trimethyl-2-oxo-1,2-dihydropyridin-3-yl)-1,3-dihydroisobenzofuran-4-yl)propanoic acid]"
3,0.692,"CC[C@@H](Nc1cc(F)c(C(=O)N[C@@H](Cc2ccc(-c3c(OC)cc(C)n(C)c3=O)c3c2COC3)C(=O)O)c(F)c1)C(F)(F)F [Example 23, (S)-2-(2,6-difluoro-4-(((R)-1,1,1-trifluorobutan-2-yl)amino)benzamido)-3-(7-(4-methoxy-1,6-dimethyl-2-oxo-1,2-dihydropyridin-3-yl)-1,3-dihydroisobenzofuran-4-yl) propanoic acid]"
4,8.81,"CC[C@@H](Nc1cc(F)c(C(=O)N[C@@H](Cc2ccc(-c3cc4ccccc4n(C)c3=O)c3c2CCCO3)C(=O)O)c(F)c1)C(F)(F)F [Example 31, (S)-2-(2,6-difluoro-4-(((R)-1,1,1-trifluorobutan-2-yl)amino)benzamido)-3-(8-(1-methyl-2-oxo-1,2-dihydroquinolin-3-yl)chroman-5-yl)propanoic acid]"
5,2.72,"CC[C@@H](Nc1cc(F)c(C(=O)N[C@@H](Cc2ccc(-c3c(C)c4cc(F)ccc4n(C)c3=O)c3c2CCCO3)C(=O)O)c(F)c1)C(F)(F)F [Example 33, (S)-2-(2,6-difluoro-4-(((R)-1,1,1-trifluorobutan-2-yl)amino)benzamido)-3-(8-(6-fluoro-1,4-dimethyl-2-oxo-1,2-dihydroquinolin-3-yl)chroman-5-yl)propanoic acid]"
6,0.236,"Cc1c(-c2ccc(C[C@H](NC(=O)c3c(F)cc(N4CCOC[C@@H]4C(F)(F)F)cc3F)C(=O)O)c3c2OCCC3)c(=O)n(C)c2ccc(F)cc12 [Example 34, (S)-2-(2,6-difluoro-4-((R)-3-(trifluoromethyl)morpholino)benzamido)-3-(8-(6-fluoro-1,4-dimethyl-2-oxo-1,2-dihydroquinolin-3-yl)chroman-5-yl)propanoic acid]"
7,1.96,"Cc1c(-c2ccc(C[C@H](NC(=O)c3c(F)cccc3F)C(=O)O)c3c2CCOC3)c(=O)n(C)c2ccc(F)cc12 [Example 35, (S)-2-(2,6-difluorobenzamido)-3-(5-(6-fluoro-1,4-dimethyl-2-oxo-1,2-dihydroquinolin-3-yl)isochroman-8-yl)propanoic acid]"
